These results are taken from patent US20240376076A1, “INHIBITORS TARGETING UBIQUITIN SPECIFIC PROTEASE 7 (USP7)” (Dana-Farber Cancer Institute, Inc., priority 2021, published 2024).

This experiment has as its target T1, USP7, Active human recombinant protein (Homo sapiens, UniProt Q93009).
T1 construct: purchased CP Lot; 20200225001
Briefly: USP7 assay (Ubiquitin-Rhodamine 110 enzymatic assay). The following applies: read-out: IC50. The experiment is classed as biochemical. On the procedure: Enzymatic Assays with Exemplary USP7 Irreversible Inhibitors
ND refers to not disclosed.
USP7, Active human recombinant protein (CP, Lot. 20200225001), Ubiquitin-Rhodamine 110 (Rh110) (BostonBiochem, Cat. No. U-555), DMSO (Sigma, Cat. N34869), DTT (Sangon Biotech, Cat. No. A620058-0005), […] Tris pH 8.0 (Sigma, Cat. No. T2694-1L), Tween-20 (Sigma, Cat. No. P2287-100ML), EDTA (Invitrogen, Cat. No. 15575020, BSA (Sigma, Cat. No. B2064-100G), 384-well assay plate (Corning, Cat. No. 3573), Echo Qualified 384-Well Polypropylene Microplate 2.0, Clear, Flat Bottom (LABCYTE, Cat. No. 001-14555).
Dilute the compounds to 400× of the final desired highest inhibitor concentration in reaction by 100% DMSO. For all compounds, transfer the compounds to one well in a 384-well Echo plate and serially dilute the compound by 3-fold dilution of 100% DMSO in the next well and so forth for a total of 10 concentrations by Precision. Add 30 μL of 100% DMSO to two empty wells for no compound control and no enzyme control in the same 384-well Echo plate. Make the plate as a source plate.
For USP7 assay, transfer 50 nL of each well from the source plate to a 384-well assay plate (OptiPlate TM-384 F black assay plates) by Echo 550 Liquid Handler.
Added appropriate amount of USP7 in 1× assay Buffer to prepare 2× enzyme solution (USP7 final concentration: 0.05 nM). Added appropriate amount of Ubiquitin-Rhodamine 110 in 1× assay Buffer to prepare 2× substrate solution (Ubiquitin-Rhodamine 110 final concentration: 190 nM). Added 10 μL of 2× enzyme solution to each reaction well of the 384-well assay plate, except for control wells without enzyme (add 10 μL of 1× Assay Buffer instead as for low control). […] Transferred 2× substrate solution to the assay plate. Added 10 μL of 2× substrate solution to each well of the 384-well assay plate to start reaction. Centrifuged at 1000 rpm for 1 min. Read the plate kinetically on SpectraMax Paradigm for 20 min with excitation at 485 nm and emission at 535 nm. Copied raw data (slope) from Reader to obtain inhibition values in Excel using equation (1): […]
Max signal was obtained from the action of Enzyme and Substrate. Min signal was obtained from the Substrate only. To fit the data in XLFit excel add-in version 5.4.0.8 to obtain IC50 values used equation (2): […]
Y is % inhibition and X is compound concentration.

T1 sequence (Q93009 whole entry): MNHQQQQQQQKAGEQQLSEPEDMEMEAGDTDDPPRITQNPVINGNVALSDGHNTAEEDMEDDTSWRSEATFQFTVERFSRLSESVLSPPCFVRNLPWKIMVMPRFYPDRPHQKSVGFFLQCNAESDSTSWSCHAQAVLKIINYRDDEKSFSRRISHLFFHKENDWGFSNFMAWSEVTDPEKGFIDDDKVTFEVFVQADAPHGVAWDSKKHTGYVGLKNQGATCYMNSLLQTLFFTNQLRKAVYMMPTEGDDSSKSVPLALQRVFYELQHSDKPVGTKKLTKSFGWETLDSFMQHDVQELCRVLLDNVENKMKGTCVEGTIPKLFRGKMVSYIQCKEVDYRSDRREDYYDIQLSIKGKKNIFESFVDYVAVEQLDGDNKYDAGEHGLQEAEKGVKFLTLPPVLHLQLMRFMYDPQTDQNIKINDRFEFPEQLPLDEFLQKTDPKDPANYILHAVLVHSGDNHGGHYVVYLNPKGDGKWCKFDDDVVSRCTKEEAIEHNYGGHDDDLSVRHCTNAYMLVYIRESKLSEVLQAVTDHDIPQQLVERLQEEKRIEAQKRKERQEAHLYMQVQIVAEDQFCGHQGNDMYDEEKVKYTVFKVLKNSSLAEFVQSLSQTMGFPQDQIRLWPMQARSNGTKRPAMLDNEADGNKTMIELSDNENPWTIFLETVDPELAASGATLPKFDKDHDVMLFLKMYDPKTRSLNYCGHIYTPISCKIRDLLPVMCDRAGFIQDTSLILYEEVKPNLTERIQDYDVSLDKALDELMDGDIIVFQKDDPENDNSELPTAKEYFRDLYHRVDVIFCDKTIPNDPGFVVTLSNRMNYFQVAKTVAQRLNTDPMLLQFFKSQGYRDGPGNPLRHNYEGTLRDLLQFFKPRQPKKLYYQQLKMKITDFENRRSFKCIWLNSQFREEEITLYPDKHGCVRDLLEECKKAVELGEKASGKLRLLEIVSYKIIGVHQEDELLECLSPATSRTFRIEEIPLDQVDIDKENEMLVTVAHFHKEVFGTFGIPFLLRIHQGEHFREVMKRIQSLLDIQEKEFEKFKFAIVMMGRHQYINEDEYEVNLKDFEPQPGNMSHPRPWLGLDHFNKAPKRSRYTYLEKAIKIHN

By IC50 is commonly meant the concentration needed to halve the response being measured. For `Cc1cc(Cl)c2ccc(C(=O)NCCC[C@@H](Cc3ccccc3)C(=O)N3CCC(O)(Cn4cnc5cc(NC(=O)CCN(C)C)ccc5c4=O)CC3)cc2n1` [Compound 51, (S)—N-(4-benzyl-5-(4-((7-(3-(dimethylamino)propanamido)-4-oxoquinazolin-3(4H)-yl)methyl)-4-hydroxypiperidin-1-yl)-5-oxopentyl)-4-chloro-2-methylquinoline-7-carboxamide], the IC50 is 20 to 100 nM.

On to `CN1CCN(CCOc2ccc3ncn(CC4(O)CCN(C(=O)C(CCCNC(=O)c5ccc6c(Cl)ccnc6c5)Cc5ccccc5)CC4)c(=O)c3c2)CC1` (centres unmarked) [Compound 38, N-(4-benzyl-5-(4-hydroxy-4-((6-(2-(4-methylpiperazin-1-yl)ethoxy)-4-oxoquinazolin-3(4H)-yl)methyl)piperidin-1-yl)-5-oxopentyl)-4-chloroquinoline-7-carboxamide], for which the IC50 was above 1000 nM.

Take `CN1CCN(CCC(=O)Nc2ccc3c(=O)n(CC4(O)CCN(C(=O)[C@H](CCCNC(=O)c5ccc6c(Cl)ccnc6c5)Cc5ccccc5)CC4)cnc3c2)CC1` [Compound 58, (R)—N-(4-benzyl-5-(4-hydroxy-4-((7-(3-(4-methylpiperazin-1-yl)propanamido)-4-oxoquinazolin-3(4H)-yl)methyl)piperidin-1-yl)-5-oxopentyl)-4-chloroquinoline-7-carboxamide]: the IC50 is above 1000 nM.

For `Nc1cccc(-n2ncc3c(=O)n(CC4(O)CCN(C(=O)C(CCCNC(=O)c5ccc6c(Cl)ccnc6c5)Cc5ccccc5)CC4)cnc32)c1` (centres unmarked) [Compound 8, N-(5-(4-((1-(3-aminophenyl)-4-oxo-1H-pyrazolo[3,4-d]pyrimidin-5(4H)-yl)methyl)-4-hydroxypiperidin-1-yl)-4-benzyl-5-oxopentyl)-4-chloroquinoline-7-carboxamide], the IC50 fell in the range of 20 to 100 nM.

Consider `C=CS(=O)(=O)NCc1cccc(C(=O)N2CCC(O)(Cn3cnc4cc(NC(=O)CCN5CCN(C)CC5)ccc4c3=O)CC2)c1` [Compound 26, N-(3-((4-hydroxy-1-(3-(vinylsulfonamidomethyl)benzoyl)piperidin-4-yl)methyl)-4-oxo-3,4-dihydroquinazolin-7-yl)-3-(4-methylpiperazin-1-yl)propanamide], for which the IC50 was above 1000 nM.

As to `CN1CCN(CCC(=O)Nc2ccc3c(=O)n(CC4(O)CCN(C(=O)C(CCCNC(=O)c5ccc6c(Cl)cc(-c7cccc(C#N)c7)nc6c5)Cc5ccccc5)CC4)cnc3c2)CC1` (centres unmarked) [Compound 16, N-(4-benzyl-5-(4-hydroxy-4-((7-(3-(4-methylpiperazin-1-yl)propanamido)-4-oxoquinazolin-3(4H)-yl)methyl)piperidin-1-yl)-5-oxopentyl)-4-chloro-2-(3-cyanophenyl)quinoline-7-carboxamide], the IC50 fell in the range of 100 to 1000 nM.

Turning to `CN(C)CCOc1ccc2ncn(CC3(O)CCN(C(=O)C(CCCNC(=O)c4ccc5c(Cl)ccnc5c4)Cc4ccccc4)CC3)c(=O)c2c1` (centres unmarked) [Compound 39, N-(4-benzyl-5-(4-((6-(2-(dimethylamino)ethoxy)-4-oxoquinazolin-3(4H)-yl)methyl)-4-hydroxypiperidin-1-yl)-5-oxopentyl)-4-chloroquinoline-7-carboxamide], the IC50 was above 1000 nM.

For the compound `Cc1cc(Cl)c2ccc(C(=O)NCCC[C@H](Cc3ccccc3)C(=O)N3CCC(O)(Cn4cnc5cc(NC(=O)CCN(C)C)ccc5c4=O)CC3)cc2n1` [Compound 50, (R)—N-(4-benzyl-5-(4-((7-(3-(dimethylamino)propanamido)-4-oxoquinazolin-3(4H)-yl)methyl)-4-hydroxypiperidin-1-yl)-5-oxopentyl)-4-chloro-2-methylquinoline-7-carboxamide], the half-maximal inhibitory concentration (IC50) was above 1000 nM.

As for `O=C(NCCC[C@H](Cc1ccccc1)C(=O)N1CCC(O)(Cn2cnc3cc(-c4ncc(CN5CCNCC5)o4)ccc3c2=O)CC1)c1ccc2c(Cl)cc(C3CC3)nc2c1` [Compound 135], the 50% inhibitory concentration (IC50) was 20 to 100 nM.

As for `CN(C)CCC(=O)Nc1ccc2c(=O)n(CC3(O)CCN(C(=O)[C@@H](CCCNC(=O)c4ccc5c(Cl)c6c(nc5c4)CN(C)CC6)Cc4ccccc4)CC3)cnc2c1` [Compound 41], the IC50 is below 20 nM.

In the case of `C=CC(=O)Nc1ccc(C#N)cc1N1CCC(C(=O)N2CCC(O)(Cn3cnc4cc(NC(=O)CCN5CCN(C)CC5)ccc4c3=O)CC2)C(c2ccccc2)C1` (centres unmarked), the IC50 is above 1000 nM.

For `O=C(CCN1CCNCC1)Nc1ccc2c(=O)n(CC3(O)CCN(C(=O)[C@@H]4CCN(CCNC(=O)c5ccc6c(Cl)ccnc6c5)C[C@H]4c4ccc(C(F)(F)F)cc4)CC3)cnc2c1` [Compound 101], the IC50 was above 1000 nM.

On to `Cc1cc(Cl)nc2c(C(=O)NCCCC(Cc3ccccc3)C(=O)N3CCC(O)(Cn4cnc5cc(NC(=O)CCN(C)C)ccc5c4=O)CC3)ccn12` (centres unmarked) [Compound 44, N-(4-benzyl-5-(4-((7-(3-(dimethylamino)propanamido)-4-oxoquinazolin-3(4H)-yl)methyl)-4-hydroxypiperidin-1-yl)-5-oxopentyl)-2-chloro-4-methylpyrrolo[1,2-a]pyrimidine-8-carboxamide], for which the IC50 is above 1000 nM.

In the case of `C=CC(=O)Nc1ccc(Cl)cc1N1CCC(C(=O)N2CCC(O)(Cn3cnc4cc(NC(=O)CCN5CCN(C)CC5)ccc4c3=O)CC2)C(c2ccccc2)C1` (centres unmarked) [Compound 103], the IC50 was in the range of 100 to 1000 nM.

Regarding `CN(C)CCC(=O)Nc1ccc2c(=O)n(CC3(O)CCN(C(=O)[C@@]4(Cc5ccccc5)CCN(CCNC(=O)c5ccc6c(Cl)ccnc6c5)C4)CC3)cnc2c1` [Compound 57], the half-maximal inhibitory concentration (IC50) was above 1000 nM.

On to `CN1CCN(CCC(=O)Nc2ccc3c(=O)n(CC4(O)CCN(C(=O)[C@H](CCCNC(=O)c5ccc6c(Cl)cc(-c7ccc(F)cc7)nc6c5)Cc5ccccc5)CC4)cnc3c2)CC1` [Compound 4, (R)—N-(4-benzyl-5-(4-hydroxy-4-((7-(3-(4-methylpiperazin-1-yl)propanamido)-4-oxoquinazolin-3(4H)-yl)methyl)piperidin-1-yl)-5-oxopentyl)-4-chloro-2-(4-fluorophenyl)quinoline-7-carboxamide], for which the IC50 was above 1000 nM.

On to `CN1CCN(CCC(=O)Nc2ccc3c(=O)n(CC4(O)CCN(C(=O)C(CCCNC(=O)c5ccc6c(Cl)c7c(nc6c5)CCCC7)Cc5ccccc5)CC4)cnc3c2)CC1` (centres unmarked), for which the IC50 is below 20 nM.

In the case of `CN(C)CCC(=O)Nc1ccc2c(=O)n(CC3(O)CCN(C(=O)C(CCCNC(=O)c4ccc5c(Cl)c6c(nc5c4)CCOC6)Cc4ccccc4)CC3)cnc2c1` (centres unmarked) [Compound 90], the half-maximal inhibitory concentration (IC50) fell in the range of 20 to 100 nM.

On to `O=C(NCCN1CC[C@@H](C(=O)N2CCC(O)(Cn3cnc4c(-c5ccc(Br)cc5)nsc4c3=O)CC2)[C@H](c2ccccc2)C1)c1ccc2c(Cl)ccnc2c1` [Compound 98], for which the IC50 fell in the range of 100 to 1000 nM.

Take `COc1cc(Cl)c2ccc(C(=O)NCCCC(Cc3ccccc3)C(=O)N3CCC(O)(Cn4cnc5cc(NC(=O)CCN(C)C)ccc5c4=O)CC3)cc2n1` (centres unmarked) [Compound 66]: the IC50 is above 1000 nM.

As for `CC1(C)C2C(=O)N(CC3(O)CCN(C(=O)[C@@H]4CCN(CCNC(=O)c5ccc6c(Cl)ccnc6c5)C[C@H]4c4ccccc4)CC3)C(=O)C21` (some centres unmarked) [Compound 99], the IC50 was above 1000 nM.

Consider `CN(C)CCC(=O)Nc1ccc2c(=O)n(CC3(O)CCN(C(=O)C(CCCNC(=O)c4ccc5c(Cl)c6c(nc5c4)CNCC6)Cc4ccccc4)CC3)cnc2c1` (centres unmarked) [Compound 88], for which the IC50 is above 1000 nM.

Consider `CN1CCN(CCC(=O)Nc2ccc3c(=O)n(CC4(O)CCN(C(=O)C(CCCNC(=O)c5ccc6c(Cl)cc(-c7cccc(C(F)(F)F)c7)nc6c5)Cc5ccccc5)CC4)cnc3c2)CC1` (centres unmarked) [Compound 15, N-(4-benzyl-5-(4-hydroxy-4-((7-(3-(4-methylpiperazin-1-yl)propanamido)-4-oxoquinazolin-3(4H)-yl)methyl)piperidin-1-yl)-5-oxopentyl)-4-chloro-2-(3-(trifluoromethyl)phenyl)quinoline-7-carboxamide], for which the IC50 lay in the range of 100 to 1000 nM.

Regarding `CN(C)CCCOc1ccc2c(=O)n(CC3(O)CCN(C(=O)[C@H](CCCNC(=O)c4ccc5c(Cl)c(F)cnc5c4)Cc4ccccc4)CC3)cnc2c1` [Compound 131], the IC50 is 100 to 1000 nM.

Take `COc1cc(Cl)nc2cc(C(=O)NCCCC(Cc3ccccc3)C(=O)N3CCC(O)(Cn4cnc5cc(NC(=O)CCN(C)C)ccc5c4=O)CC3)ccc12` (centres unmarked) [Compound 67]: the IC50 was above 1000 nM.

With `CN(C)CCCOc1ccc2c(=O)n(CC3(O)CCN(C(=O)C(Cn4ccc(F)n4)N(C)CCNC(=O)c4ccc5c(Cl)cc(C6CC6)nc5c4)CC3)cnc2c1` (centres unmarked), the IC50 is 100 to 1000 nM.
